Experiments:
[1] = system: human multiple myeloma RPMI8226 cell xenograft tumor; assay: In-vivo anti-tumor efficacy in multiple myeloma xenograft tumor model (tumor volume, T/C, TGI); set-up: species or system mouse; settings: for Average volume (mm3) Start of the treatment Day 1 / Average volume (mm3) End of the treatment Day 21 / T/C %: QD × 21; for Average volume (mm3) End of the treatment Day 21 / T/C %: Day 21
Description: The in-vivo anti-tumor efficacy of the compound 1, lenalidomide, dexamethasone and a combination of the compound 1 or lenalidomide with dexamethasone in human multiple myeloma RPMI8226 cell xenograft tumor model was evaluated.
(§1) The test animals were female CB17 SCID mice. Human RPMI8226 cells were cultured in RPMI1640 medium containing 10% heat-inactivated fetal bovine serum and 1% penicillin-streptomycin double antibody in an incubator with 5% CO2 at 37° C. When the cells were in an exponential growth phase, the cells were harvested, counted, and subcutaneously inoculated into the right dorsal portion of each mouse. The mice were grouped and administered when the average tumor volume reached about 150 mm^3. Grouping method: the animals were weighed and measured for the tumor volume before administration, and grouped by block design according to the tumor volume.
(§2) Whether the tumor growth could be inhibited, delayed or cured was investigated. The diameter of the tumor was measured by a vernier caliper. The tumor volume was calculated by a formula: V=0.5×a×b^2, in which a and b respectively represent the long diameter and short diameter of the tumor. The anti-tumor effect T/C (%) of the compound was evaluated by a formula: T/C %=TRTV/CRTV×100% (TRTV: RTV of the treatment group; CRTV: RTV of the negative control group). The relative tumor volume RTV was calculated by a formula: RTV=Vt/V0, where V0 is the measured tumor volume at the time of grouping and administration (i.e. day 0), and Vt is the tumor volume at each measurement. T/C (%) reflects the inhibition rate on tumor growth. […] The weight of the mice bearing tumor in each group was recorded and analyzed, as shown in FIGS. 1 and 2 and Table 14, and the effect of the compound on the tumor volume of the mice bearing tumor is shown in FIGS. 3 and 4 and Table 15.

[2] = Body weight of tumor-bearing mice in the in-vivo pharmacodynamic test; set-up: species or system mouse; settings: for Average body weight (g) Start of the treatment Day 1 / Average body weight (g) End of the treatment Day 21 / Average RCBW (%)/end of the treatment Day 21: QD × 21; for Average body weight (g) Start of the treatment Day 1 / Average body weight (g) End of the treatment Day 21: x ± SEM; for Average RCBW (%)/end of the treatment Day 21: Day 21 relative to Day 1
Description: as §1, §2

[3] = system: SU-DHL6; assay: Inhibition of tumor cell proliferation, CellTiter-Glo, SU-DHL6; format: cell-based; settings: compound concentration 50 μM, 72 hours
In short: (§3)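 Luminescent ATP read-out (CellTiter-Glo) after 72 hours gave survival relative to untreated wells, corrected for blank. Activity categories were assigned from survival at 50 μM: ≤30% high, >30-60% moderate, 60-<90% low.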

[4] = system: RPMI-8226; assay: Inhibition of tumor cell proliferation, CellTiter-Glo, RPMI-8226; format: cell-based; settings: compound concentration 50 μM, 72 hours
In short: as §3

[5] = system: K562; assay: Inhibition of tumor cell proliferation, CellTiter-Glo, K562; format: cell-based; settings: compound concentration 50 μM, 72 hours
In short: as §3

[6] = system: A549; assay: Inhibition of tumor cell proliferation, CellTiter-Glo, A549; format: cell-based; settings: compound concentration 50 μM, 72 hours
In short: as §3

[7] = system: MDA-MB-453; assay: Inhibition of tumor cell proliferation, CellTiter-Glo, MDA-MB-453; format: cell-based; settings: compound concentration 50 μM, 72 hours
In short: as §3

[8] = system: BxPC-3; assay: Inhibition of tumor cell proliferation, CellTiter-Glo, BxPC-3; format: cell-based; settings: compound concentration 50 μM, 72 hours
In short: as §3

[9] = molecular target: LC3B (Homo sapiens (Human), UniProt Q9GZQ8); assay: Fluorescence polarization experiment targeting LC3B (GST-LC3B with FITC-labeled peptide); settings: GST-LC3B 180 nM, FITC-labeled peptide 18 nM, 25° C.
[10] = Lenalidomide 30 mg/kg + Dexamethasone 1 mg/kg
[11] = Lenalidomide 30 mg/kg p.o, RPMI8226 tumor-bearing mice
[12] = Lenalidomide 30 mg/kg p.o + Dexamethasone 1 mg/kg i.p
[13] = Lenalidomide 30 mg/kg p.o., RPMI8226 tumor-bearing mice
[14] = Compound 1 53 mg/kg + Dexamethasone 1 mg/kg
[15] = Compound 1 53 mg/kg p.o + Dexamethasone 1 mg/kg i.p

Nc1cccc2c1CN(C1CCC(=O)NC1=O)C2=O (stereo not shown) [Lenalidomide, reference compound]
Average volume (mm3) Start of the treatment Day 1 [1, 10]: 141.35 ± 15.02 mm3 | Average volume (mm3) End of the treatment Day 21 [1, 10]: 233.72 ± 47.47 mm3 | T/C % [1, 10]: 12.51% | Average volume (mm3) Start of the treatment Day 1 [1, 11]: 140.44 ± 15.82 mm3 | T/C % ([1]; Lenalidomide 30 mg/kg p.o): 49.67% | Average volume (mm3) End of the treatment Day 21 [1, 11]: 927.82 ± 164.85 mm3 | Average body weight (g) Start of the treatment Day 1 [2, 12]: 21.23 ± 0.34 g | Average body weight (g) End of the treatment Day 21 [2, 12]: 20.08 ± 0.25 g | Average RCBW (%)/end of the treatment Day 21 [2, 12]: −5.33% | Average body weight (g) Start of the treatment Day 1 [2, 13]: 21.02 ± 0.23 g | Average body weight (g) End of the treatment Day 21 [2, 13]: 21.90 ± 0.30 g | Average RCBW (%)/end of the treatment Day 21 ([2]; Lenalidomide 30 mg/kg p.o.): 4.18%

O=C1CCC(N2Cc3c(NC=C4C(=O)CC(c5ccccc5)CC4=O)cccc3C2=O)C(=O)N1 (stereo not shown) [Compound 1]
Inhibitory activity against proliferation (cell survival rate) SU-DHL6 [3]: +++ (survival rate (%)≤30) | Inhibitory activity against proliferation (cell survival rate) RPMI-8226 [4]: +++ (survival rate (%)≤30) | Inhibitory activity against proliferation (cell survival rate) K562 [5]: +++ (survival rate (%)≤30) | Inhibitory activity against proliferation (cell survival rate) A549 [6]: +++ (survival rate (%)≤30) | Inhibitory activity against proliferation (cell survival rate) MDA-MB-453 [7]: ++ (30<survival rate (%)≤60) | Inhibitory activity against proliferation (cell survival rate) BxPC-3 [8]: ++ (30<survival rate (%)≤60) | Tumor inhibition effect ([1]; 17.7 mg/kg, versus lenalidomide 30 mg/kg): comparable to that of lenalidomide | Anti-tumor effect ([1]; 53 mg/kg (same molar dose as lenalidomide)): significantly higher than lenalidomide | Average volume (mm3) Start of the treatment Day 1 ([1]; Compound 1 17.7 mg/kg p.o): 141.27 ± 14.61 mm3 | Average volume (mm3) End of the treatment Day 21 ([1]; Compound 1 17.7 mg/kg p.o): 881.71 ± 175.49 mm3 | T/C % ([1]; Compound 1 17.7 mg/kg p.o): 47.20% | Average volume (mm3) Start of the treatment Day 1 [1, 14]: 141.54 ± 14.27 mm3 | Average volume (mm3) End of the treatment Day 21 [1, 14]: 179.24 ± 48.35 mm3 | T/C % [1, 14]: 9.60% | Average volume (mm3) Start of the treatment Day 1 ([1]; Compound 1 53 mg/kg p.o): 142.38 ± 15.41 mm3 | Average volume (mm3) End of the treatment Day 21 ([1]; Compound 1 53 mg/kg p.o): 674.46 ± 137.82 mm3 | T/C % ([1]; Compound 1 53 mg/kg p.o): 36.11% | Tumor inhibition effect ([1]; in combination with dexamethasone): stronger tumor inhibition effect than lenalidomide | Average body weight (g) Start of the treatment Day 1 ([2]; Compound 1 17.7 mg/kg p.o): 21.60 ± 0.36 g | Average body weight (g) End of the treatment Day 21 ([2]; Compound 1 17.7 mg/kg p.o): 22.49 ± 0.39 g | Average RCBW (%)/end of the treatment Day 21 ([2]; Compound 1 17.7 mg/kg p.o): 4.13% | Average body weight (g) Start of the treatment Day 1 [2, 15]: 21.41 ± 0.32 g | Average body weight (g) End of the treatment Day 21 [2, 15]: 20.46 ± 0.31 g | Average RCBW (%)/end of the treatment Day 21 [2, 15]: −4.46% | Average body weight (g) Start of the treatment Day 1 ([2]; Compound 1 53 mg/kg p.o): 21.15 ± 0.36 g | Average body weight (g) End of the treatment Day 21 ([2]; Compound 1 53 mg/kg p.o): 22.25 ± 0.31 g | Average RCBW (%)/end of the treatment Day 21 ([2]; Compound 1 53 mg/kg p.o): 5.27% | Effect on body weight of tumor-bearing mice ([2]; in combination with dexamethasone, attributed to dexamethasone): weight loss | Effect on body weight of tumor-bearing mice ([2]; throughout the administration period): does not affect the body weight | IC50 [9]: 3 to 15 µM

O=C1CCC(N2Cc3c(NC(=O)CNC=C4C(=O)CC(c5ccccc5)CC4=O)cccc3C2=O)C(=O)N1 (stereo not shown) [Compound 42]
Inhibitory activity against proliferation (cell survival rate) SU-DHL6 [3]: + (60≤survival rate (%)<90) | Inhibitory activity against proliferation (cell survival rate) RPMI-8226 [4]: ++ (30<survival rate (%)≤60) | Inhibitory activity against proliferation (cell survival rate) K562 [5]: ++ (30<survival rate (%)≤60) | Inhibitory activity against proliferation (cell survival rate) A549 [6]: ++ (30<survival rate (%)≤60) | Inhibitory activity against proliferation (cell survival rate) MDA-MB-453 [7]: + (60≤survival rate (%)<90) | Inhibitory activity against proliferation (cell survival rate) BxPC-3 [8]: + (60≤survival rate (%)<90) | IC50 [9]: 100 to 1000 µM

From patent publication US11021457B2, “Class of isoindolone-imide ring-1,3-dione-2-ene compounds, composition and use thereof” (WIGEN BIOMEDICINE TECHNOLOGY (SHANGHAI) CO., LTD., priority 2017, dated 2021)
